In US20240000811A1, “INOSITOL HEXAKISPHOSPHATE ANALOGUES FOR TREATMENT OF CALCIFICATION ASSOCIATED KIDNEY DISEASES” (INOSITEC AG, priority 2020, published 2024):

How the values were obtained:
[1] = system: RPTEC/TERT 1 human proximal tubule cells; experiment: RNA sequencing of RPTEC treated with Ca/P and compound; format: cell-based; conditions: 50 μM compound
Protocol: RNA sequencing Cells were cultured as described in the imaging assay and treated with a medium control (ProxUp basal medium containing 1/1 mM Ca/P), 5/7 mM Ca/P, 5/7 mM Ca/P in medium containing 50 μM (OEG2)2-IP4 or 50 μM (OEG2)2-IP4 in medium for 24 h. Total RNA was extracted using the RNeasy kit (Quiagen) according to the manufacturer's instructions. Three wells per sample group were prepared and total RNA extracted of those 3 wells pooled. mRNA was purified and RNAseq library was prepared using the TrueSeq RNA kit (Illumina). Sequencing was performed on a Novaseq 6000 (Illumina). Reads were aligned to the human reference genome GRCh38.p10 using the STAR tool (https://github.com/alexdobin/STAR) and transcripts quantified using the Kallisto program (42). Ensembl release 91 was used for the gene model definitions. […] The heatmap was plotted using R software. Overrepresentation analysis was performed on Webgestalt.org (v2019) (43), using differentially expressed genes with p≤0.01, log 2fold change≥0.5. Differential expressed genes were compared to the gene ontology—biological process functional database and as a reference set the human genome—protein coding was used. The weighted set cover of the top 30 enriched categories was plotted. For comparison of expression levels of the selected genes, the fragments per kilobase of exon model per million reads mapped (FPKM) were used. Three independent experiments were performed. RNA sequencing raw data is available on the EMBL Nucleotide Sequence Database (ENA) under the accession number PRJEB38397.

[2] = system: C57BL/6 male mice on high phosphate diet; experiment: Mouse model of high phosphate-induced kidney damage; format: in vivo; conditions: 100 mg/kg s.c. 3 times/week
Protocol: C57BL/6 male mice (12 weeks of age) were placed on either regular diet containing 0.35% inorganic phosphate or high phosphate diet containing 2.0% inorganic phosphate. These mice were subcutaneously injected with either (OEG2)2-IP4 (100 mg/kg) or vehicle (distilled water) three times a week and then sacrificed at 20 weeks of age to harvest their blood and kidneys. Some mice were transferred individually to metabolic cages to collect urine for 3 days before sacrifice. Serum FGF23 levels were measured using intact FGF23 ELISA (Kinos) according to the manufacturers' protocols. Serum and urine levels of phosphate were measured using Fuji Dri-Chem slides and the analyzer (Dri-Chem NX500V, Fuji, Tokyo, Japan). […] Quantitative RT-PCR reactions were performed using 20 ng of cDNA incubated with 410 nM of each primer and 6 μL of SYBR Green PCR Master mix (Toyoba, Osaka, Japan THUNDERBIRD SYBR qPCR Mix QPS-201) in a total volume of 12 μl. […] Relative mRNA levels were calculated by the comparative threshold cycle method using cyclophilin as an internal control. […] The collagen volume fraction (the ratio of the Sirius Red-positive area to the total area) was quantified using an image analysis software (IMAGE PRO 9.32, Medica Cybernetics, Rockville, MD, USA) as previously described (Hirano, Y. Kurosu et al., FEBS Open Bio. 10, 894-903. DOI:10.1002/2211-5463.1284, 2020). […]

`COCCOCCO[C@@H]1C(OP(=O)(O)O)[C@H](OCCOCCOC)[C@@H](OP(=O)(O)O)C(OP(=O)(O)O)[C@H]1OP(=O)(O)O` (stereo partly shown) [(OEG2)2-IP4] was tested, and the “Ca/P-induced change in gene expression profile” value ([1]; 5/7 mM Ca/P, 24 h) was “prevented”, the “differentially expressed genes, Ca/P+compound vs. compound only” value ([1]; fold change ≥1.5 and p≤0.05) was 77 and the “differentially expressed genes, Ca/P+compound vs. negative ctrl” value ([1]; fold change ≥1.5 and p≤0.05) was 76. For the same molecule, the “differentially expressed genes, Ca/P+compound vs. positive ctrl” value ([1]; fold change ≥1.5 and p≤0.05) was 2437, the “differentially expressed genes, compound only vs. positive ctrl” value ([1]; fold change ≥1.5 and p≤0.05) was 2935 and the “collagen volume fraction (fibrosis), Picro-Sirius red staining of the kidneys, vs vehicle” value [2] was “reduced”. The “kidney damage and fibrosis markers (Spp1, IL36a, Ngal, MMP3, Col1a1 mRNA in kidney) vs vehicle control” value [2] was “significantly reduced”.
